Data from US10745396B2, “Pesticidally active polycyclic derivatives with sulfur containing substituents” (Syngenta Participations AG, priority 2015, dated 2020).

Columns and labels:
Type in all cases: in vivo
[1] = tested on: Plutella xylostella (Diamond Back Moth); experiment: Plutella xylostella, artificial diet, L2 larvae; details: 120 h, application rate of 200 ppm, 5 days after infestation, read-out: effect in at least one of the two categories (mortality or growth inhibition)
Procedure: Example B7: Plutella xylostella (Diamond Back Moth)
24-well microtiter plates with artificial diet were treated with aqueous test solutions prepared from 10′000 ppm DMSO stock solutions by pipetting. After drying, the plates were infested with L2 larvae (10 to 15 per well). The samples were assessed for mortality and growth inhibition in comparison to untreated samples 5 days after infestation.

[2] = tested on: Euschistus heros (Neotropical Brown Stink Bug); experiment: Euschistus heros, soybean leaves on agar, N2 nymphs; details: 120 h, application rate of 200 ppm, 5 days after infestation, read-out: effect in at least one of the two categories (mortality or growth inhibition)
Procedure: Example B3: Euschistus heros (Neotropical Brown Stink Bug)
Soybean leaves on agar in 24-well microtiter plates were sprayed with aqueous test solutions prepared from 10′000 ppm DMSO stock solutions. After drying the leaves were infested with N2 nymphs. The samples were assessed for mortality and growth inhibition in comparison to untreated samples 5 days after infestation.

[3] = tested on: Bemisia tabaci (Cotton White Fly); experiment: Bemisia tabaci feeding/contact activity, cotton leaf discs; details: foliar, 144 h, application rate of 200 ppm, 6 days after incubation, adult white flies
Procedure: Example B1: Bemisia tabaci (Cotton White Fly): Feeding/Contact Activity
Cotton leaf discs were placed on agar in 24-well microtiter plates and sprayed with aqueous test solutions prepared from 10′000 ppm DMSO stock solutions. After drying the leaf discs were infested with adult white flies. The samples were checked for mortality 6 days after incubation.

[4] = tested on: Diabrotica balteata (Corn Root Worm); experiment: Diabrotica balteata, maize sprouts on agar, L2 larvae; details: 96 h, application rate of 200 ppm, 4 days after infestation, read-out: effect in at least one of the two categories (mortality or growth inhibition)
Procedure: Example B2: Diabrotica balteata (Corn Root Worm)
Maize sprouts placed onto an agar layer in 24-well microtiter plates were treated with aqueous test solutions prepared from 10′000 ppm DMSO stock solutions by spraying. After drying, the plates were infested with L2 larvae (6 to 10 per well). The samples were assessed for mortality and growth inhibition in comparison to untreated samples 4 days after infestation.

[5] = tested on: Spodoptera littoralis (Egyptian Cotton Leaf Worm); experiment: Spodoptera littoralis, cotton leaf discs, L1 larvae; details: foliar, 72 h, application rate of 200 ppm, 3 days after infestation
Procedure: Example B8: Spodoptera littoralis (Egyptian Cotton Leaf Worm)
Cotton leaf discs were placed onto agar in 24-well microtiter plates and sprayed with aqueous test solutions prepared from 10′000 ppm DMSO stock solutions. After drying the leaf discs were infested with five L1 larvae. The samples were assessed for mortality, anti-feeding effect, and growth inhibition in comparison to untreated samples 3 days after infestation. Control of Spodoptera littoralis by a test sample is given when at least one of the categories mortality, anti-feedant effect, and growth inhibition is higher than the untreated sample.

[6] = tested on: Spodoptera littoralis (Egyptian Cotton Leaf Worm); experiment: Spodoptera littoralis, uptake by lettuce roots from agar, eggs; details: 144 h, test rate of 12.5 ppm, 6 days after infestation, read-out: effect in at least one of the three categories (mortality, anti-feeding, or growth inhibition)
Excerpt: Example B9: Spodoptera littoralis (Egyptian Cotton Leaf Worm)
Test compounds were applied by pipette from 10′000 ppm DMSO stock solutions into 24-well plates and mixed with agar. Lettuce seeds were placed onto the agar and the multi well plate was closed by another plate which contained also agar. After 7 days the compound was absorbed by the roots and the lettuce grew into the lid plate. The lettuce leaves were then cut off into the lid plate. Spodoptera eggs were pipetted through a plastic stencil onto a humid gel blotting paper and the lid plate was closed with it. The samples were assessed for mortality, anti-feedant effect and growth inhibition in comparison to untreated samples 6 days after infestation.

[7] = tested on: Myzus persicae (Green Peach Aphid); experiment: Myzus persicae feeding/contact activity, sunflower leaf discs; details: foliar, 144 h, application rate of 200 ppm, 6 days after infestation
Procedure: Example B5: Myzus persicae (Green Peach Aphid): Feeding/Contact Activity
Sunflower leaf discs were placed onto agar in a 24-well microtiter plate and sprayed with aqueous test solutions prepared from 10′000 ppm DMSO stock solutions. After drying, the leaf discs were infested with an aphid population of mixed ages. The samples were assessed for mortality 6 days after infestation.

[8] = tested on: Myzus persicae (Green Peach Aphid); experiment: Myzus persicae systemic activity, pea seedling roots in test solution; details: 144 h, test rate of 24 ppm, 6 days after placing seedlings into test solutions
Procedure: Example B6: Myzus persicae (Green Peach Aphid): Systemic Activity
Roots of pea seedlings infested with an aphid population of mixed ages were placed directly into aqueous test solutions prepared from 10′000 DMSO stock solutions. The samples were assessed for mortality 6 days after placing seedlings into test solutions.

[9] = tested on: Thrips tabaci (Onion Thrips); experiment: Thrips tabaci feeding/contact activity, sunflower leaf discs; details: foliar, 144 h, application rate of 200 ppm, 6 days after infestation
Procedure: Example B11: Thrips tabaci (Onion Thrips) Feeding/Contact Activity
Sunflower leaf discs were placed on agar in 24-well microtiter plates and sprayed with aqueous test solutions prepared from 10′000 ppm DMSO stock solutions. After drying the leaf discs were infested with a thrips population of mixed ages. The samples were assessed for mortality 6 days after infestation.

[10] = tested on: Frankliniella occidentalis (Western Flower Thrips); experiment: Frankliniella occidentalis feeding/contact activity, sunflower leaf discs; details: foliar, 168 h, application rate of 200 ppm, 7 days after infestation, population of mixed ages
Procedure: Example B4: Frankliniella occidentalis (Western Flower Thrips): Feeding/Contact Activity
Sunflower leaf discs were placed on agar in 24-well microtiter plates and sprayed with aqueous test solutions prepared from […] stock solutions. After drying the leaf discs were infested with a Frankliniella population of mixed ages. The samples were assessed for mortality 7 days after infestation.

CCn1c(C(F)(F)F)cc2nc(-c3nc(-n4ccc(C(F)(F)F)n4)ccc3S(=O)(=O)CC)n(C)c2c1=O [Compound P3, 5-ethyl-2-[3-ethylsulfonyl-6-[3-(trifluoromethyl)pyrazol-1-yl]-2-pyridyl]-3-methyl-6-(trifluoromethyl)imidazo[4,5-c]pyridin-4-one]
≥ 80%: percent effect (mortality or growth inhibition) at 200 ppm [1] | percent effect (mortality or growth inhibition) at 200 ppm [2] | mortality at 200 ppm [3] | percent effect (mortality or growth inhibition) at 200 ppm [4] | percent control (mortality, anti-feedant effect or growth inhibition) at 200 ppm [5]

CCn1c(C(F)(F)F)cc2nc(-c3nc(-n4cncn4)ccc3S(=O)(=O)CC)n(C)c2c1=O [Compound P5]
≥ 80%: percent effect (mortality or growth inhibition) at 200 ppm [1] | percent effect (mortality, anti-feeding or growth inhibition) at 12.5 ppm [6] | percent effect (mortality or growth inhibition) at 200 ppm [2] | mortality at 200 ppm [7] | mortality at 200 ppm [3] | percent effect (mortality or growth inhibition) at 200 ppm [4] | mortality at 24 ppm [8] | mortality at 200 ppm [9] | percent control (mortality, anti-feedant effect or growth inhibition) at 200 ppm [5]

CCn1c(C(F)(F)F)cc2nc(-c3nc(C4CC4)ccc3S(=O)(=O)CC)n(C)c2c1=O [Compound P11]
≥ 80%: mortality at 200 ppm [3]

CCn1c(C(F)(F)F)cc2nc(-c3nc(-c4ccncc4)ccc3S(=O)(=O)CC)n(C)c2c1=O [Compound P13]
≥ 80%: percent effect (mortality or growth inhibition) at 200 ppm [1] | percent effect (mortality or growth inhibition) at 200 ppm [4] | mortality at 200 ppm [10] | percent control (mortality, anti-feedant effect or growth inhibition) at 200 ppm [5]

CCn1c(C(F)(F)F)cc2nc(-c3nc(-c4cccc(F)c4)ccc3S(=O)(=O)CC)n(C)c2c1=O [Compound P14]
≥ 80%: percent effect (mortality or growth inhibition) at 200 ppm [1] | percent effect (mortality, anti-feeding or growth inhibition) at 12.5 ppm [6] | percent effect (mortality or growth inhibition) at 200 ppm [2] | mortality at 200 ppm [7] | mortality at 200 ppm [3] | percent effect (mortality or growth inhibition) at 200 ppm [4] | percent control (mortality, anti-feedant effect or growth inhibition) at 200 ppm [5]

CCn1c(C(F)(F)F)cc2nc(-c3nc(-c4ccc(C(F)(F)F)nc4)ccc3S(=O)(=O)CC)n(C)c2c1=O [Compound P16]
≥ 80%: percent effect (mortality or growth inhibition) at 200 ppm [1] | percent effect (mortality or growth inhibition) at 200 ppm [2] | mortality at 200 ppm [7] | mortality at 200 ppm [3] | percent effect (mortality or growth inhibition) at 200 ppm [4] | mortality at 200 ppm [10] | percent control (mortality, anti-feedant effect or growth inhibition) at 200 ppm [5]

CCn1c(C(F)(F)F)cc2nc(-c3nc(-c4ccccc4)ccc3S(=O)(=O)CC)n(C)c2c1=O [Compound P18]
≥ 80%: percent effect (mortality or growth inhibition) at 200 ppm [1] | percent effect (mortality, anti-feeding or growth inhibition) at 12.5 ppm [6] | percent effect (mortality or growth inhibition) at 200 ppm [2] | mortality at 200 ppm [7] | percent effect (mortality or growth inhibition) at 200 ppm [4] | percent control (mortality, anti-feedant effect or growth inhibition) at 200 ppm [5]

CCn1c(C(F)(F)F)cc2nc(-c3nc(-c4cnc(OC)nc4)ccc3S(=O)(=O)CC)n(C)c2c1=O [Compound P20]
≥ 80%: percent effect (mortality or growth inhibition) at 200 ppm [1] | percent effect (mortality, anti-feeding or growth inhibition) at 12.5 ppm [6] | percent effect (mortality or growth inhibition) at 200 ppm [2] | mortality at 200 ppm [7] | percent effect (mortality or growth inhibition) at 200 ppm [4] | mortality at 200 ppm [10] | percent control (mortality, anti-feedant effect or growth inhibition) at 200 ppm [5]

CCn1c(C(F)(F)F)cc2nc(-c3nc(-c4cncnc4)ccc3S(=O)(=O)CC)n(C)c2c1=O [Compound P21]
≥ 80%: percent effect (mortality or growth inhibition) at 200 ppm [1] | percent effect (mortality, anti-feeding or growth inhibition) at 12.5 ppm [6] | percent effect (mortality or growth inhibition) at 200 ppm [2] | mortality at 200 ppm [7] | mortality at 200 ppm [3] | percent effect (mortality or growth inhibition) at 200 ppm [4] | percent control (mortality, anti-feedant effect or growth inhibition) at 200 ppm [5]

CCn1c(C(F)(F)F)cc2nc(-c3nc(-c4cncn4C)ccc3S(=O)(=O)CC)n(C)c2c1=O [Compound P28]
≥ 80%: percent effect (mortality or growth inhibition) at 200 ppm [1] | mortality at 200 ppm [3] | percent effect (mortality or growth inhibition) at 200 ppm [4] | percent control (mortality, anti-feedant effect or growth inhibition) at 200 ppm [5]

CCn1c(C(F)(F)F)cc2nc(-c3nc(-c4cccc(SC)c4)ccc3S(=O)(=O)CC)n(C)c2c1=O [Compound P29]
≥ 80%: percent effect (mortality or growth inhibition) at 200 ppm [1] | percent effect (mortality or growth inhibition) at 200 ppm [2] | mortality at 200 ppm [7] | mortality at 200 ppm [3] | percent effect (mortality or growth inhibition) at 200 ppm [4] | percent control (mortality, anti-feedant effect or growth inhibition) at 200 ppm [5]

CCn1c(C(F)(F)F)cc2nc(-c3nc(-c4cc(F)ccc4F)ccc3S(=O)(=O)CC)n(C)c2c1=O [Compound P37]
≥ 80%: percent effect (mortality or growth inhibition) at 200 ppm [1] | percent effect (mortality, anti-feeding or growth inhibition) at 12.5 ppm [6] | percent effect (mortality or growth inhibition) at 200 ppm [2] | mortality at 200 ppm [3] | percent effect (mortality or growth inhibition) at 200 ppm [4] | percent control (mortality, anti-feedant effect or growth inhibition) at 200 ppm [5]

CCn1c(C(F)(F)F)cc2nc(-c3nc(-c4cnco4)ccc3S(=O)(=O)CC)n(C)c2c1=O [Compound P38]
≥ 80%: percent effect (mortality or growth inhibition) at 200 ppm [1] | mortality at 200 ppm [7] | percent effect (mortality or growth inhibition) at 200 ppm [4] | mortality at 24 ppm [8] | percent control (mortality, anti-feedant effect or growth inhibition) at 200 ppm [5]

CCn1c(C(F)(F)F)cc2nc(-c3nc(C4CC4)ccc3S(=O)(=O)CC)n(C)c2c1=O [Compound P39]
≥ 80%: percent effect (mortality or growth inhibition) at 200 ppm [1] | percent effect (mortality, anti-feeding or growth inhibition) at 12.5 ppm [6] | percent effect (mortality or growth inhibition) at 200 ppm [2] | mortality at 200 ppm [7] | percent effect (mortality or growth inhibition) at 200 ppm [4] | percent control (mortality, anti-feedant effect or growth inhibition) at 200 ppm [5]
